Legend:
[1] = tested on: EpiDerm skin model; test: viability assay (MTT) in EpiDerm skin model; format: cell-based; settings: peptide at 500 μM and 2 mM, relative to PBS control
Procedure: The sample containers were transferred to 6 well plates that contained fresh media. All peptides were dissolved in PBS at a final concentration of 10 mM, and 100 μL each peptide solution was pipetted onto the surface of the Epiderm sample container. Incubation was continued for 12 hours at 37° C., 5% CO2. After the incubation period, the sample containers were washed three times with PBS and the sample containers were transferred to a 24 well plate that contained 300 μL of MTT assay media per well (MTT concentration was 1 mg/mL). The colorimetric assay was allowed to develop for three hours (incubation at 37° C., 5% CO2). Sample containers were then transferred to a 24 well culture plate that contained 2 mL of isopropanol per well. Extraction of the colored precipitate occurred over a period of four hours at room temperature. Absorbance readings were taken at 570 nm and 650 nm for each sample. The percent viability of each sample relative to a PBS control was calculated as: 100×(OD570^sam−OD650^sam)/(OD570^con−OD650^con) (6) Routinely, the peptide sample was assayed in triplicate. Results

[2] = tested on: C57BL6/KsJ db/db mice; test: wound healing in db/db diabetic mice; format: in vivo
Excerpt: The mice were obtained from The Jackson Laboratories and were aged 3–7 months before the onset of the wounding protocol. All mice were anesthetized prior to wounding. Wounds were created in C57BL6/KsJ db/db mice with a 4 mm biopsy punch. Two wounds were introduced onto the upper back of each animal by pulling the skin away from underlying structures and pushing the punch through the isolated skin. Typically, wounds were created to an average depth of 1.7 mm, with a range of 1.3 to 2.2 mm. No muscle involvement occurred during the course of wounding.
Each day the wounds were digitally photographed and wound areas were determined by computer integration of the photographs. All wound treatments and the subsequent data analyses were performed in a blind manner (see e.g., Brown et al., 1994). Wound area at the time of wounding (day 0) is arbitrarily set to a relative value of 1 for all wounds; such that subsequent wound areas are converted to relative wound areas by dividing the wound area at day n by the wound area at day zero.

[3] = tested on: normal human dermal fibroblasts; test: fibroblast proliferation, Cell Titer 96, OD 490 nm; format: cell-based; parameters: fibroblast cell density versus control: dose or concentration left out as unconfirmed; settings: 28 hours
Procedure: A human skin fibroblast cell line (Clonetics, Walkersville, Md., normal human dermal fibroblasts, neonatal, catalog number CC-2509) was tested to ascertain whether exposure to a peptide would stimulate cellular proliferation. […] Plates were incubated for 24 hours at 37° C. in a humidified 5% CO2 atmosphere. After incubation, the medium was aspirated and the wells were rinsed twice with 100 μl of serum-free DMEM. […] In addition, 100 μl of vehicle (serum-free DMEM) was added to 10 wells as control. All wells were incubated for 28 hours at 37° C. in a humidified, 5% CO2 atmosphere. After incubation, 20 μl of Cell Titer 96 Aqueous One Solution was added to all wells. The plates were swirled gently and placed back in the incubator for 45 minutes and spectrophotometric absorbance was read at 490 nm. Results were analyzed statistically using one-way ANOVA.

[4] = tested on: normal human epidermal keratinocytes; test: keratinocyte proliferation, Cell Titer 96, OD 490 nm; format: cell-based; settings: 48 hours
Procedure: The proliferative response of these human skin keratinocytes to the 19mer peptide was measured in a 96-well assay system using keratinocyte basal medium (KBM, Clonetics, catalog number CC-3103) as a control. […] The plates were incubated for 24 hours at 37° C. in a humidified 5% CO2 atmosphere. […] In addition, 100 μl of vehicle KBM was added to 10 wells as control. The plate was incubated for 48 hours at 37° C. in a humidified, 5% CO2 atmosphere. After incubation, 20 μl of Cell Titer 96 Aqueous One Solution was added to all wells. The plate was swirled gently and placed back in the incubator for 3 hours. The spectrophotometric absorbance of each well was read at 490 nm. Results were analyzed statistically using one-way ANOVA.

[5] = tested on: collagen production in human skin fibroblast cell line; test: collagen production in human skin fibroblasts, EIA; format: cell-based; settings: for Mean (collagen EIA, absorbance at 450 nm) / Median (collagen EIA, absorbance at 450 nm): 48 hours, n=2; for collagen production versus control: 10^−5 and 10^−6 M, P<0.001
Procedure: The stimulation response of the 19mer peptide on collagen production in the human skin fibroblast cell line (Clonetics, Walkersville, Md., normal human dermal fibroblasts, neonatal, catalog number CC-2509) was measured using Takara Biomedicals EIA assay kit (TAK MKO101) sold by Panvera (Madison, Wis.). The cells were first grown in a 96-well assay system using DMEM with 10% fetal bovine serum (FBS) both purchased from Sigma Chemical Co, St. Louis, Mo. Serum-free DMEM was used as a control. […] Plates were incubated for 24 hours at 37° C. in a humidified 5% CO2 atmosphere. After incubation, the medium was aspirated and the wells were rinsed twice with 100 μl of serum-free DMEM. […] In addition, 100 μl of vehicle (serum-free DMEM) was added to 4 wells as control. All wells were incubated for 48 hours at 37° C. in a humidified, 5% CO2 atmosphere.
The assay was performed using the recommended 20ul of the supernatant from each well of the 96-well plate. Standard buffer and stop solutions were freshly prepared before running the assay. 100ul of antibody-POD conjugate solution (supplied with the kit) was added into the wells using pre antibody coated 96 well plate (supplied with the kit). 20ul of standard and test solutions (from the other 96-well plate containing fibroblasts) were added to appropriate wells. Plate was mixed gently, sealed and incubated for three hrs. at 37° C.
After incubation each well was washed carefully four times with PBS buffer (400ul). All the wells were completely emptied at the end of washing from any liquid. 100ul of substrate solution (hydrogen peroxide and tetramethylbenzidine in a buffer solution, supplied with the kit) was added to each well and the plate was incubated for 15 minutes. At this point 100ul of stop solution (freshly prepared 1N H2SO4) was added to each well in the same order as substrate. The plate was gently mixed and absorbance was read at 450 nm. Results were analyzed statistically using one-way ANOVA.

[6] = single dose 5 μL of 20 μg/mL at day zero

For CC(C)[C@H](NC(=O)[C@H](CC(=O)O)NC(=O)[C@@H]1CCCN1C(=O)[C@H](CC(N)=O)NC(=O)CNC(=O)[C@H](CS)NC(=O)[C@H](CCCNC(=N)N)NC(=O)[C@@H]1CCCN1)C(=O)N[C@@H](C)C(=O)N[C@@H](CC(N)=O)C(=O)N[C@@H](Cc1ccc(O)cc1)C(=O)N[C@@H](CC(N)=O)C(=O)N[C@@H](Cc1ccccc1)C(=O)N[C@@H](Cc1ccccc1)C(=O)N1CCC[C@H]1C(=O)N[C@@H](CCCNC(=N)N)C(=O)N[C@@H](CCCCN)C(=O)N1CCC[C@H]1C(=O)N[C@@H](CCCCN)C(=O)O [Peptide 19-mer], the total average viability [1] was 97.6%, the wound inflammation ([2]; day one post wounding) was “reduction in wound inflammation” and the “day on which wound contraction process began” value [2, 6] was 5 days. For the same molecule, the “time to wound closure post wounding” value [2, 6] was 9 days, the “fibroblast cell growth versus control” value ([3]; 1×10^−4 M, P<0.001) was “even greater cell growth” and the “fibroblast cell proliferation versus control” value ([3]; 1×10^−6 M, P<0.05) was “a small amount of cell proliferation”. For the same molecule, the “fibroblast cell density versus control” value ([3]; (19mer5), P<0.01) was “significantly greater cell density”, the “keratinocyte cell growth versus control” value ([4]; 1×10^−4 M, P<0.001) was “even greater cell growth” and the “keratinocyte cell density versus control” value ([4]; 1×10^−5 M, P<0.01) was “significantly greater cell density”. For the same molecule, the “keratinocyte cell proliferation versus control” value ([4]; 1×10^−6 M, P>0.05) was “only a small amount of cell proliferation”, the “Mean (collagen EIA, absorbance at 450 nm)” value ([5]; 1×10^−5 M) was 0.8365 and the “Median (collagen EIA, absorbance at 450 nm)” value ([5]; 1×10^−5 M) was 0.8365. The “Mean (collagen EIA, absorbance at 450 nm)” value ([5]; 1×10^−6 M) was 0.8315, the “Median (collagen EIA, absorbance at 450 nm)” value ([5]; 1×10^−6 M) was 0.8315 and the “collagen production versus control” value [5] was “increased collagen production”. The “collagen production versus control” value ([5]; listed as 19mer peptide) was “statistically significant amounts”.
